Columns and labels:
Experiment in all cases: Test A pre/postemergence
Type in all cases: in vivo
[1] = test system: barnyardgrass (Echinochloa crus-galli)
Experimental: (§1) Seeds of barnyardgrass (Echinochloa crus-galli), crabgrass (Digitaria sanguinalis), giant foxtail (Setaria faberi), morningglory (Ipomoea spp.), redroot pigweed (Amaranthus retroflexus) and velvetleaf (Abutilon theophrasti) were planted into a blend of loam soil and sand and treated preemergence with a directed soil spray using test chemicals formulated in a non-phytotoxic solvent mixture which included a surfactant. At the same time these species were also treated with postemergence applications of test chemicals formulated in the same manner.
(§2) Plants ranged in height from 2 to 10 cm and were in the 1- to 2-leaf stage for the postemergence treatment. Treated plants and untreated controls were maintained in a greenhouse for approximately ten days, after which time all treated plants were compared to untreated controls and visually evaluated for injury. Plant response ratings, summarized in Table A, are based on a 0 to 100 scale where 0 is no effect and 100 is complete control. A dash (-) response means no test results.

[2] = test system: crabgrass (Digitaria sanguinalis)
Experimental: as §1, §2

[3] = test system: giant foxtail (Setaria faberi)
Experimental: as §1, §2

[4] = test system: morningglory (Ipomoea spp.)
Experimental: as §1, §2

[5] = test system: redroot pigweed (Amaranthus retroflexus)
Experimental: as §1, §2

[6] = test system: velvetleaf (Abutilon theophrasti)
Experimental: as §1, §2

[7] = Postemergence, 125 g ai/ha, 0 to 100 scale (0 no effect, 100 complete control)
[8] = Postemergence, 500 g ai/ha, 0 to 100 scale (0 no effect, 100 complete control)
[9] = Preemergence, 125 g ai/ha, 0 to 100 scale where 0 is no effect and 100 is complete control, approximately ten days
[10] = Preemergence, 500 g ai/ha, 0 to 100 scale where 0 is no effect and 100 is complete control, approximately ten days

| SMILES | Plant response rating, Barnyardgrass [1, 7] | Plant response rating, Barnyardgrass [1, 8] | Plant response rating, Barnyardgrass [1, 9] | Plant response rating, Barnyardgrass [1, 10] | Plant response rating, Crabgrass [2, 7] | Plant response rating, Crabgrass [2, 8] | Plant response rating, Crabgrass [2, 9] | Plant response rating, Crabgrass [2, 10] | Plant response rating, Foxtail, Giant [3, 7] | Plant response rating, Foxtail, Giant [3, 8] | Plant response rating, Foxtail, Giant [3, 9] | Plant response rating, Foxtail, Giant [3, 10] | Plant response rating, Morningglory [4, 7] | Plant response rating, Morningglory [4, 8] | Plant response rating, Morningglory [4, 9] | Plant response rating, Morningglory [4, 10] | Plant response rating, Pigweed [5, 7] | Plant response rating, Pigweed [5, 8] | Plant response rating, Pigweed [5, 9] | Plant response rating, Pigweed [5, 10] | further results |
| --- | --- | --- | --- | --- | --- | --- | --- | --- | --- | --- | --- | --- | --- | --- | --- | --- | --- | --- | --- | --- | --- |
| COC(=O)c1nc(-c2ccc(S(C)(=O)=O)cc2)nc(N)c1Cl [Compound 122] | 0 | 0 | 0 | 0 | 0 | 0 | 0 | 0 | 0 | 0 | 0 | 0 | 0 | 0 | 0 | 0 | 0 | 0 | 0 | 0 | Plant response rating, Velvetleaf [6, 7]: 0; Plant response rating, Velvetleaf [6, 8]: 0; Plant response rating, Velvetleaf [6, 9]: 0; Plant response rating, Velvetleaf [6, 10]: 0 |
| COC(=O)c1nc(-c2ccc([S+](C)[O-])cc2)nc(N)c1Cl (stereo not drawn) [Compound 123] | 0 | 10 | 0 | 0 | 0 | 0 | 0 | 0 | 0 | 10 | 0 | 0 | 0 | 20 | 0 | 0 | 0 | 0 | 0 | 0 | Plant response rating, Velvetleaf [6, 7]: 0; Plant response rating, Velvetleaf [6, 8]: 0; Plant response rating, Velvetleaf [6, 9]: 0; Plant response rating, Velvetleaf [6, 10]: 0 |
| CCOC(=O)c1nc(-c2ccccc2F)nc(N)c1Cl [Compound 106] | 0 | 5 | 0 | 5 | 0 | 0 | 0 | 0 | 0 | 0 | 0 | 0 | 20 | 35 | 0 | 0 | 15 | 70 | 0 | 30 | Plant response rating, Velvetleaf [6, 7]: 25; Plant response rating, Velvetleaf [6, 8]: 55; Plant response rating, Velvetleaf [6, 9]: 5; Plant response rating, Velvetleaf [6, 10]: 30 |
| Nc1nc(C2CC2)nc(C(=O)OCC2CCCO2)c1Cl (stereo not drawn) [Compound 150] | 80 | 95 | 65 | 80 | 65 | 80 | 50 | 80 | 80 | 85 | 50 | 80 | 80 | 100 | 90 | 100 | 90 | 90 | 70 | 95 | Plant response rating, Velvetleaf [6, 7]: 90; Plant response rating, Velvetleaf [6, 8]: 100; Plant response rating, Velvetleaf [6, 9]: 75; Plant response rating, Velvetleaf [6, 10]: 95 |

— patent US8802597B2, “Herbicidal pyrimidines” (E I du Pont de Nemours and Company, priority 2003, dated 2014)
